Source: ChEMBL document CHEMBL4680144, “N-thiadiazole-4-hydroxy-2-quinolone-3-carboxamides bearing heteroaromatic rings as novel antibacterial agents: Design, synthesis, biological evaluation and target identification” (Eur J Med Chem, 2020)
≈ marks a conversion by molar mass, not a printed value. Calls of active or inactive are those of the source. No cut-off for these calls is given here.

Key:
[1] = Selectivity index, ratio of IC50 for human HUVEC cells to MIC for methicillin-resistant Staphylococcus aureus; format: toxicity
Enterococcus faecalis [2] = assay: Antibacterial activity against vancomycin-resistant Enterococcus faecalis ATCC 51299 assessed as inhibition of bacterial growth incubated for 18 to 24 hrs by broth microdilution method; format: functional; settings: time 18-24 hrs
[3] = tested on: Staphylococcus epidermidis; assay: Antibacterial activity against methicillin-sensitive Staphylococcus epidermidis clinical isolate 15-4 assessed as inhibition of bacterial growth incubated for 18 to 24 hrs by broth microdilution method; format: functional; settings: time 18-24 hrs
Staphylococcus aureus [4] = assay: Bactericidal activity against methicillin-resistant Staphylococcus aureus clinical isolate 15-1 assessed as reduction in log10CFU at 1 to 2 times MIC measured after 24 hrs by time kill kinetics analysis; format: functional, organism-based
[5] = Metabolic stability in mouse liver microsomes assessed as half life preincubated for 5 mins followed by NADPH addition and measured up to 60 mins by LC-MS/MS analysis; format: ADME, Microsome; settings: time 65 min
Staphylococcus aureus [6] = assay: Antibacterial activity against methicillin-resistant Staphylococcus aureus clinical isolate 15-7 assessed as inhibition of bacterial growth incubated for 18 to 24 hrs by broth microdilution method; format: functional; settings: time 18-24 hrs
[7] = AUClast in Kunming mouse at 10 mg/kg, po measured upto 72 hrs by HPLC analysis; format: ADME, organism-based; set-up: route oral, dose 10 mg/kg, time <=72; settings: in vivo
Staphylococcus aureus [8] = assay: In vivo antibacterial activity against methicillin-resistant Staphylococcus aureus clinical isolate 15-1 infected in Kunming mouse assessed as protection from systemic infection up to 50 mg/kg, po administered twice after bacterial infection; format: functional, organism-based; settings: dose mg/kg <=50
Staphylococcus aureus [9] = assay: Bactericidal activity against methicillin-resistant Staphylococcus aureus clinical isolate 15-1 assessed as reduction in log10CFU at 8 times MIC measured over 24 hrs by time kill kinetics analysis; format: functional
Enterococcus faecium [10] = assay: Potency index, ratio of vancomycin MIC to test compound MIC for antibacterial activity against Enterococcus faecium clinical isolate 15-1 assessed as inhibition of bacterial growth incubated for 18 to 24 hrs by broth microdilution method; format: functional; settings: time 18-24 hrs
Staphylococcus aureus [11] = assay: (§1) In vivo antibacterial activity against methicillin resistant Staphylococcus aureus clinical isolate 15-1 infected in kunming mouse assessed as animal survival rate at 1 mg/kg, po administered 6 hrs prior to bacterial infection and at 0 and 6 hrs post infection and measured for 7 days (reference value: 12.5 %); format: functional; settings: 15-1, po, 168 h, time 7 day
Staphylococcus aureus [12] = assay: Antibacterial activity against methicillin-resistant Staphylococcus aureus clinical isolate 15-2 assessed as inhibition of bacterial growth incubated for 18 to 24 hrs by broth microdilution method; format: functional; settings: time 18-24 hrs
[13] = tested on: Staphylococcus epidermidis; assay: Antibacterial activity against methicillin-resistant Staphylococcus epidermidis clinical isolate 15-1 assessed as inhibition of bacterial growth incubated for 18 to 24 hrs by broth microdilution method; format: functional; settings: time 18-24 hrs
Staphylococcus aureus [14] = assay: Antibacterial activity against methicillin-resistant Staphylococcus aureus clinical isolate 15-1 assessed as reduction in bacterial growth treated for 20 passages; format: functional; settings: time 24 hrs
Enterococcus faecalis [15] = assay: Potency index, ratio of vancomycin MIC to test compound MIC for antibacterial activity against Enterococcus faecalis clinical isolate 15-2 assessed as inhibition of bacterial growth incubated for 18 to 24 hrs by broth microdilution method; format: functional; settings: time 18-24 hrs
[16] = Half life in Kunming mouse at 10 mg/kg, po measured upto 72 hrs by HPLC analysis; format: ADME, organism-based; settings: in vivo
Enterococcus faecium [17] = assay: Antibacterial activity against Enterococcus faecium clinical isolate 15-1 assessed as inhibition of bacterial growth incubated for 18 to 24 hrs by broth microdilution method; format: functional; settings: time 18-24 hrs
Staphylococcus aureus [18] = assay: Potency index, ratio of vancomycin MIC to test compound MIC for antibacterial activity against methicillin-resistant Staphylococcus aureus clinical isolate 15-2 assessed as inhibition of bacterial growth incubated for 18 to 24 hrs by broth microdilution method; format: functional; settings: time 18-24 hrs
Staphylococcus aureus [19] = assay: as §1, with “at 0.33” for “at 1”; format: functional; settings: 15-1, po, 168 h, time 7 day
Staphylococcus aureus [20] = assay: as §1, with “at 9” for “at 1”; format: functional; settings: 15-1, po, 168 h, time 7 day
[21] = Metabolic stability in mouse plasma assessed as half life measured upto 120 mins by LC-MS/MS analysis; format: ADME, cell-free
Staphylococcus aureus [22] = assay: Antibacterial activity against methicillin-resistant Staphylococcus aureus clinical isolate 15-8 assessed as inhibition of bacterial growth incubated for 18 to 24 hrs by broth microdilution method; format: functional; settings: time 18-24 hrs
Enterococcus faecalis [23] = assay: Antibacterial activity against Enterococcus faecalis clinical isolate 15-1 assessed as inhibition of bacterial growth incubated for 18 to 24 hrs by broth microdilution method; format: functional; settings: time 18-24 hrs
Staphylococcus aureus [24] = assay: as §1, with “at 3” for “at 1”; format: functional; settings: 15-1, po, 168 h, time 7 day
Enterococcus faecium [25] = assay: Antibacterial activity against Enterococcus faecium clinical isolate 15-2 assessed as inhibition of bacterial growth incubated for 18 to 24 hrs by broth microdilution method; format: functional; settings: time 18-24 hrs
Staphylococcus aureus [26] = assay: Antibacterial activity against methicillin-resistant Staphylococcus aureus clinical isolate 15-3 assessed as inhibition of bacterial growth incubated for 18 to 24 hrs by broth microdilution method; format: functional; settings: time 18-24 hrs
Staphylococcus aureus [27] = assay: Potency index, ratio of vancomycin MIC to test compound MIC for antibacterial activity against methicillin-resistant Staphylococcus aureus clinical isolate 15-8 assessed as inhibition of bacterial growth incubated for 18 to 24 hrs by broth microdilution method; format: functional; settings: time 18-24 hrs
[28] = tested on: Staphylococcus epidermidis; assay: Antibacterial activity against methicillin-resistant Staphylococcus epidermidis clinical isolate 15-2 assessed as inhibition of bacterial growth incubated for 18 to 24 hrs by broth microdilution method; format: functional; settings: time 18-24 hrs
[29] = AUCinfinity in Kunming mouse at 10 mg/kg, po by HPLC analysis; format: ADME, organism-based; set-up: time infinity, route oral, dose 10 mg/kg; settings: in vivo
Staphylococcus aureus [30] = assay: Bactericidal activity against methicillin-resistant Staphylococcus aureus clinical isolate 15-1 assessed as reduction in log10CFU at 4 times MIC measured over 24 hrs by time kill kinetics analysis; format: functional
Staphylococcus aureus [31] = assay: Potency index, ratio of vancomycin MIC to test compound MIC for antibacterial activity against methicillin-resistant Staphylococcus aureus clinical isolate 15-7 assessed as inhibition of bacterial growth incubated for 18 to 24 hrs by broth microdilution method; format: functional; settings: time 18-24 hrs
Staphylococcus aureus [32] = assay: Antibacterial activity against methicillin-resistant Staphylococcus aureus clinical isolate 15-9 assessed as inhibition of bacterial growth incubated for 18 to 24 hrs by broth microdilution method; format: functional; settings: time 18-24 hrs
[33] = Inhibition of Staphylococcus aureus Gyrase B using linear pBR322 DNA as substrate incubated for 30 mins in presence of ATP by ADP-Glo assay
[34] = Selectivity index, ratio of IC50 for human HepG2 cells to MIC for methicillin-resistant Staphylococcus aureus; format: toxicity
[35] = Metabolic stability in mouse liver microsomes assessed as intrinsic clearance preincubated for 5 mins followed by NADPH addition and measured up to 60 mins by LC-MS/MS analysis; format: ADME, Microsome; settings: time 65 min, read-out: CLH
[36] = Protein binding in mouse plasma at 5 uM incubated for 5 hrs by equilibrium dialysis based LC-MS/MS analysis; format: ADME, cell-free; settings: read-out: PPB
[37] = Tmax in Kunming mouse at 10 mg/kg, po measured upto 72 hrs by HPLC analysis; format: ADME, organism-based; settings: in vivo
Staphylococcus aureus [38] = assay: Antibacterial activity against methicillin resistant and vancomycin-intermediate sensitive Staphylococcus aureus ATCC 700788 assessed as inhibition of bacterial growth incubated for 18 to 24 hrs by broth microdilution method; format: functional; settings: time 18-24 hrs

CCn1c(=O)c(C(=O)Nc2nnc(-c3nccs3)s2)c(O)c2ccccc21
selectivity ratio [1]: 77.6
MIC (Enterococcus faecalis [2]): 0.5 µg/mL (≈ 1.25 µM)
MIC [3]: 0.5 µg/mL (≈ 1.25 µM)
Activity (Staphylococcus aureus [4]): Active
half-life [5]: 0.593 h
MIC (Staphylococcus aureus [6]): 0.5 µg/mL (≈ 1.25 µM)
AUC(0-t) at 72 h [7]: 2540 ng·h/mL
Activity (Staphylococcus aureus [8]): inactive
Activity (Staphylococcus aureus [9]): 3 log10CFU/ml
Ratio (Enterococcus faecium [10]): 2
survival at 1 mg/kg (Staphylococcus aureus [11]): 37.5%
MIC (Staphylococcus aureus [12]): 0.5 µg/mL (≈ 1.25 µM)
MIC [13]: 0.5 µg/mL (≈ 1.25 µM)
MIC (Staphylococcus aureus [14]): 0.5 µg/mL (≈ 1.25 µM)
Ratio (Enterococcus faecalis [15]): 2
half-life [16]: 2.3 h
MIC (Enterococcus faecium [17]): 1 µg/mL (≈ 2.5 µM)
Ratio (Staphylococcus aureus [18]): 2
survival at 0.33 mg/kg (Staphylococcus aureus [19]): 25%
survival at 9 mg/kg (Staphylococcus aureus [20]): 87.5%
half-life [21]: 8.39 h
MIC (Staphylococcus aureus [22]): 0.5 µg/mL (≈ 1.25 µM)
MIC (Enterococcus faecalis [23]): 0.5 µg/mL (≈ 1.25 µM)
survival at 3 mg/kg (Staphylococcus aureus [24]): 50%
MIC (Enterococcus faecium [25]): 1 µg/mL (≈ 2.5 µM)
MIC (Staphylococcus aureus [26]): 0.5 µg/mL (≈ 1.25 µM)
Ratio (Staphylococcus aureus [27]): 2
MIC [28]: 0.5 µg/mL (≈ 1.25 µM)
AUC(0-inf) [29]: 2620 ng·h/mL
Activity (Staphylococcus aureus [30]): >3 log10CFU/ml
Ratio (Staphylococcus aureus [31]): 2
MIC (Staphylococcus aureus [32]): 0.25 µg/mL (≈ 0.626 µM)
IC50 [33]: 150 nM
selectivity ratio [34]: 111
microsomal CLint [35]: 38.9 µL/min/mg
fraction unbound at 5 h, 5 µM [36]: 0.001
Tmax [37]: 1 h
MIC (Staphylococcus aureus [38]): 0.5 µg/mL (≈ 1.25 µM)
